Molecular target: T1, Src (Homo sapiens, UniProt P12931)
T1 construct: purchased Carna Biosciences
Experiment: Protein binding selectivity by change in fluorescence (fluorescence turn-on on binding)
Procedure: More particularly, to determine whether compound 1 selectively binds to a kinase enzyme, various proteins (including a kinase enzyme) were used to check a change in fluorescence. In this experiment, a buffer (100 mM HEPES buffer, pH 7.4) was used as the solvent, and a kinase commercially available from Carna Biosciences was used as the kinase enzyme. Here, each kinase enzyme was stored at −80° C. together with a solvent (50 mM Tris-HCl, 150 mM NaCl, 0.1% CHAPS, 1 mM DTT, and 10% Glycerol, pH 7.5) kindly provided by the manufacturer. […] A 96-well fluorescence assay plate (commercially available from SPL Life Science) was used as a plate used upon measurement of fluorescence, and a VCITOR 3 multilabel counter (commercially available from Perkin Elmer-Wellesley) was used as a measuring machine. A 355 nm-thick filter was used to produce excitation wavelengths of the measuring machine, and a 535 nm-thick filter was used to produce emission wavelengths of the measuring machine. Stirring was performed at 37° C. for 24 hours at a rotary speed of 170 rpm using an NB-205Q model (commercially available from N-BIOTEK). Compound 1 was dissolved in a DMSO solution (1 mM, 10 mM, 50 mM, 100 mM, and 200 mM) to be used, and DMSO in every tube was adjusted to be substantially the same content (less than 1%) under the finally used solvent conditions. Mg^2+ and ATP were used at a content of 1 mM.
In the graph shown in FIG. 2, the horizontal axis represents kinds of proteins, and the vertical axis represents fluorescence intensities of the proteins. Each experimental value was basically an average value of three experiments conducted through the same course for preparing for experiments, a concentration of compound 1 used was 100 μM, and an amount of each protein was 0.2 μg/mL. The kinds of proteins indicated on the horizontal axis are as follows. […]
More particularly, the solvent and experiment conditions used were substantially the same as in Example 3. In the graph shown in FIG. 7, A represents a fluorescence intensity when compound 1 (100 μM) is used alone, B represents a fluorescence intensity when Mg (1 mM) is added to compound 1, C represents a fluorescence intensity when ATP (1 mM) is added to compound 1, and D represents a fluorescence intensity when compound 1 is treated with Mg (1 mM) and ATP (1 mM) at the same time.
More particularly, a concentration of the kinase enzyme was set to 0.2 μg/mL, fluorescence intensity according to the concentration of compound 1 was measured in the presence of Mg (1 mM) and ATP (1 mM), and the solvent conditions and other conditions were substantially the same as in Example 3.

T1 sequence (P12931 whole entry): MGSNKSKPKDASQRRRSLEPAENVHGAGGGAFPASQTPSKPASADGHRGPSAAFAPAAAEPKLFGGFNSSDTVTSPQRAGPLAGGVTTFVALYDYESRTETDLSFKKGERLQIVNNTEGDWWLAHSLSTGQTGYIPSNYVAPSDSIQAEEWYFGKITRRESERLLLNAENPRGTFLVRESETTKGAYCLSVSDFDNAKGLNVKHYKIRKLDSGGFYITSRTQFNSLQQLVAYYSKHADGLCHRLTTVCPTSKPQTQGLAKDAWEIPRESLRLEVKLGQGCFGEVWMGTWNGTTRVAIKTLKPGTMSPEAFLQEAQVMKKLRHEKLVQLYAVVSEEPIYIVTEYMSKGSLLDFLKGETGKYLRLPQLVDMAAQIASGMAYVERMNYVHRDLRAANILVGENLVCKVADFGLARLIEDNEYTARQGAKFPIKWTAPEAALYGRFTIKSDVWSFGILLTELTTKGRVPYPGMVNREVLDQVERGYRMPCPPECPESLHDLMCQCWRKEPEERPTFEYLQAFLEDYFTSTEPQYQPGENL

- fluorescence intensity (compound 1 100 μM, protein 0.2 μg/mL, with Mg and ATP (1 mM), 37° C. 24 hours): increase in fluorescence
- increase in fluorescence intensity (compound 1 at approximately 50 μM, kinase 0.2 μg/mL, Mg 1 mM, ATP 1 mM): approximately 50%
Compound: CN(C)c1ccc2cc(C=O)c(O)cc2c1 [compound 1, 6-(dimethylamino)-3-hydroxyl-2-naphthaldehyde]
- fluorescence intensity, effect of cofactors (compound 1 100 μM, case D: Mg (1 mM) and ATP (1 mM) together): highest increase in fluorescence intensity
- fluorescence signal intensity according to concentration of kinase enzyme (compound 1 100 μM, enzyme 0.2 μg and 1 μg): stronger fluorescence signal intensity at higher concentrations
